Source: ChEMBL document CHEMBL1140475, “Structure-activity relationship (SAR) investigations of substituted imidazole analogs as TRPV1 antagonists” (Bioorg Med Chem Lett, 2007)

Columns and labels:
[1] = biological target: T1, Transient receptor potential cation channel subfamily V member 1 (Rattus norvegicus, UniProt O35433); assay: Antagonist activity at rat TRPV1 expressed in CHO cells assessed blocking of capsaicin-induced calcium influx; assay type: functional, cell-based
[2] = biological target: T1, Transient receptor potential cation channel subfamily V member 1; assay: Antagonist activity at rat TRPV1 expressed in CHO cells assessed blocking of acid-induced calcium influx at pH 5; assay type: functional, cell-based
[3] = AUC (0 to infinity) in Sprague-Dawley rat at 5 mg/kg, po; assay type: ADME, organism-based; parameters: time infinity, dose 5 mg/kg, route oral; conditions: plasma
[4] = Tmax in Sprague-Dawley rat at 5 mg/kg, po; assay type: ADME, organism-based; parameters: dose 5 mg/kg, route oral; conditions: in vivo
[5] = Cmax in Sprague-Dawley rat at 5 mg/kg, po; assay type: ADME, organism-based; parameters: dose 5 mg/kg, route oral; conditions: in vivo
[6] = Clearance in Sprague-Dawley rat at 1 mg/kg, iv; assay type: ADME, organism-based; parameters: dose 1 mg/kg, route intravenous; conditions: in vivo
[7] = Bioavailability in Sprague-Dawley rat at 5 mg/kg; assay type: ADME, organism-based; conditions: in vivo
[8] = AUC (0 to infinity) in Sprague-Dawley rat at 1 mg/kg, iv; assay type: ADME, organism-based; parameters: time infinity, dose 1 mg/kg, route intravenous; conditions: plasma
[9] = Half life in Sprague-Dawley rat at 1 mg/kg, iv; assay type: ADME, organism-based; parameters: dose 1 mg/kg, route intravenous; conditions: in vivo
[10] = Volume of distribution at steady state in Sprague-Dawley rat at 1 mg/kg, iv; assay type: ADME, organism-based; parameters: dose 1 mg/kg, route intravenous; conditions: in vivo, read-out: Vdss

T1 sequence (O35433 whole entry): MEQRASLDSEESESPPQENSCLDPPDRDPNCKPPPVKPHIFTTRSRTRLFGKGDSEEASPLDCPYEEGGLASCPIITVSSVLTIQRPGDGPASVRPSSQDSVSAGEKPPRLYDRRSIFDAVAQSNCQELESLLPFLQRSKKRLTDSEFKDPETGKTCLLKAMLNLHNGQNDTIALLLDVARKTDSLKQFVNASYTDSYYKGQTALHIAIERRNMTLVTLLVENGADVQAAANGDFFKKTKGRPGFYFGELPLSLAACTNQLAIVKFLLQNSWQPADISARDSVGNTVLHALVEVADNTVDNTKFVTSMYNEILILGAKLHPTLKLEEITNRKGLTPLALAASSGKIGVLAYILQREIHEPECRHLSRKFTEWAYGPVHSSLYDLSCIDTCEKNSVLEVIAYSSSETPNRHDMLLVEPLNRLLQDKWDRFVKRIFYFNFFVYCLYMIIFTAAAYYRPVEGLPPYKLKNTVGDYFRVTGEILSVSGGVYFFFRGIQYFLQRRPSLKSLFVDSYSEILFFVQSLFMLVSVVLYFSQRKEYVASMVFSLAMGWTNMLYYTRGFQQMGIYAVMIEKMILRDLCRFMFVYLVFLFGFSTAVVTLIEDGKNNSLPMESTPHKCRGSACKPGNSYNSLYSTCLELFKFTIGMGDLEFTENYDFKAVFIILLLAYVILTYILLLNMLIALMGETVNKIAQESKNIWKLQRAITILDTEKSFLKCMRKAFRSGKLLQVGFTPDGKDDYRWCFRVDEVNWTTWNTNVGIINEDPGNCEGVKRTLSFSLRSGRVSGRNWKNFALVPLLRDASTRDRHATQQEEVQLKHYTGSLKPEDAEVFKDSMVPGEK

SMILES | IC50 [1] | IC50 [2] | also measured
CC(C)CN1CCCCC1CNC(=O)c1nc(N2CCN(c3ncccc3C(F)(F)F)CC2)[nH]c1-c1ccc(C(F)(F)F)cc1 (stereo not given) | 1900 nM | > 4000 nM | 
FC(F)(F)c1cccc(-c2[nH]c(N3CCN(c4ncccc4C(F)(F)F)CC3)nc2-c2ccccc2)c1 | 1240 nM | 165 nM | 
FC(F)(F)c1ccc(-c2nc(N3CCN(c4ncccc4C(F)(F)F)CC3)[nH]c2-c2ccc(C(F)(F)F)cc2)cc1 | 573 nM | 146 nM | 
O=C(NCC1CCCCN1)c1nc(N2CCN(c3ncccc3C(F)(F)F)CC2)[nH]c1-c1ccc(C(F)(F)F)cc1 (stereo not given) | 2950 nM | > 4000 nM | 
CC(C)N1CCN(C(=O)c2nc(N3CCN(c4ncccc4C(F)(F)F)CC3)[nH]c2-c2ccc(C(F)(F)F)cc2)CC1 | 700 nM | 1000 nM | 
FC(F)(F)c1ccc(-c2c[nH]c(N3CCN(c4ncccc4C(F)(F)F)CC3)n2)cc1 | 861 nM | > 4000 nM | 
COC(=O)c1nc(N2CCN(c3ncccc3C(F)(F)F)CC2)[nH]c1-c1ccc(C(F)(F)F)cc1 | 1170 nM | 180 nM | 
CCN1CCCC1CNC(=O)c1nc(N2CCN(c3ncccc3C(F)(F)F)CC2)[nH]c1-c1ccc(C(F)(F)F)cc1 (stereo not given) | 4100 nM | 3300 nM | 

More lines, main results first:

IC50 [1] | IC50 [2] | SMILES | also measured
160 nM | > 4000 nM | FC(F)(F)c1ccc(-c2nc(N3CCN(c4ncccc4C(F)(F)F)CC3)[nH]c2Cl)cc1 | 
117 nM | 341 nM | C[C@@H]1CN(c2ncccc2C(F)(F)F)CCN1c1nc(-c2ccccc2)c(-c2ccc(C(F)(F)F)cc2)[nH]1 | 
7 nM | 20 nM | Fc1cc(-c2nc(N3CCN(c4ncccc4C(F)(F)F)CC3)[nH]c2-c2ccc(C(F)(F)F)cc2)cc(F)c1F | AUC(0-inf) [3]: 80 ng·h/mL; Tmax [4]: 1 h; Cmax [5]: 17 ng/mL; clearance [6]: 31.7 mL/min/kg; bioavailability [7]: 3%; AUC(0-inf) [8]: 529 ng·h/mL; half-life [9]: 1.9 h; Vd [10]: 1.7 L/kg
26 nM | 29 nM | C[C@@H]1CN(c2ncc(CO)cc2Cl)CCN1c1nc(-c2ccccc2)c(-c2ccc(C(F)(F)F)cc2)[nH]1 | 
90 nM | 160 nM | OCc1cnc(N2CCN(c3nc(-c4ccccc4)c(-c4ccc(C(F)(F)F)cc4)[nH]3)CC2)c(Cl)c1 | 
107 nM | 216 nM | FC(F)(F)c1ccc(-c2[nH]c(N3CCN(c4ncccc4C(F)(F)F)CC3)nc2-c2ccccc2)cc1 | AUC(0-inf) [3]: 30 ng·h/mL; Tmax [4]: 1.3 h; Cmax [5]: 13 ng/mL; clearance [6]: 167 mL/min/kg; bioavailability [7]: 6%; AUC(0-inf) [8]: 105 ng·h/mL; half-life [9]: 2.3 h; Vd [10]: 5 L/kg
44 nM | 32 nM | Fc1cc(-c2nc(N3CCN(c4ncccc4C(F)(F)F)CC3)[nH]c2-c2cc(F)c(F)c(F)c2)cc(F)c1F | 
1 nM | 4 nM | C[C@@H]1CN(c2ncc(CO)cc2Cl)CCN1c1nc(-c2cc(F)c(F)c(F)c2)c(-c2ccc(C(F)(F)F)cc2)[nH]1 | AUC(0-inf) [3]: 2460 ng·h/mL; Tmax [4]: 4.7 h; Cmax [5]: 347 ng/mL; clearance [6]: 13.3 mL/min/kg; bioavailability [7]: 40%; AUC(0-inf) [8]: 1230 ng·h/mL; half-life [9]: 6.3 h; Vd [10]: 5.4 L/kg
35 nM | 85 nM | Fc1cc(F)cc(-c2nc(N3CCN(c4ncccc4C(F)(F)F)CC3)[nH]c2-c2ccc(C(F)(F)F)cc2)c1 | 
628 nM | > 4000 nM | Cc1nc(N2CCN(c3ncccc3C(F)(F)F)CC2)[nH]c1-c1ccc(C(F)(F)F)cc1 | 
